According to PubChem BioAssay (NCI):
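GI50 marks 50% less growth. TGI denotes the concentration required for complete inhibition of growth.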

Tests used:
Test in all cases: NCI tumour cell line growth inhibition, 384-well format
[1] = tested on: OVCAR-4 ovarian
[2] = tested on: SR leukemia
[3] = tested on: M14 melanoma
[4] = tested on: CAKI-1 renal
[5] = tested on: 786-0 renal
[6] = tested on: NCI-H322M lung
[7] = tested on: LOX IMVI melanoma
[8] = tested on: MDA-MB-435 melanoma
[9] = tested on: SF-539 CNS
[10] = tested on: A498 renal
[11] = tested on: ACHN renal
[12] = tested on: TK-10 renal
[13] = tested on: NCI-H460 NSCLC
[14] = tested on: HCT-15 colon
[15] = tested on: MDA-MB-468 breast
[16] = tested on: SK-MEL-28 melanoma
[17] = tested on: SN12C renal
[18] = tested on: HCC-2998 colon
[19] = tested on: RPMI-8226 leukemia
[20] = tested on: EKVX NSCLC
[21] = tested on: T-47D breast
[22] = tested on: CCRF-CEM leukemia
[23] = tested on: UO-31 renal
[24] = tested on: RXF 393 renal
[25] = tested on: HOP-62 NSCLC
[26] = tested on: MOLT-4 leukemia
[27] = tested on: NCI-H23 lung
[28] = tested on: NCI-H226 lung
[29] = tested on: MDA-MB-231 breast

CC(CN(C)C)S(=O)(=O)c1ccc(-c2cnc(N)c(C(=O)Nc3ccccc3)n2)cc1 (stereo not drawn)
GI50 [1]: 1.13 µM | TGI [1]: 4.19 µM | GI50 [2]: 0.385 µM | TGI [2]: 1.4 µM | GI50 [3]: 1.73 µM | TGI [3]: 10.7 µM | GI50 [4]: 2.77 µM | TGI [4]: 14.7 µM | GI50 [5]: 0.753 µM | TGI [5]: 2.66 µM | GI50 [6]: 1.1 µM | TGI [6]: 15.5 µM | GI50 [7]: 2.48 µM | TGI [7]: 11.5 µM | GI50 [8]: 3.82 µM | TGI [8]: 16.1 µM | GI50 [9]: 1.14 µM | TGI [9]: 2.62 µM | GI50 [10]: 0.343 µM | TGI [10]: 1.35 µM | GI50 [11]: 0.979 µM | TGI [11]: 7.41 µM | GI50 [12]: 0.993 µM | TGI [12]: 7.61 µM | GI50 [13]: 0.696 µM | TGI [13]: 6.72 µM | GI50 [14]: 1.03 µM | TGI [14]: 2.43 µM | GI50 [15]: 0.412 µM | TGI [15]: 1.34 µM | GI50 [16]: 2.39 µM | TGI [16]: 6.47 µM | GI50 [17]: 5.15 µM | TGI [17]: 20 µM | GI50 [18]: 0.314 µM | TGI [18]: 0.937 µM | GI50 [19]: 1.56 µM | TGI [19]: 4.48 µM | GI50 [20]: 8.14 µM | TGI [20]: 31.3 µM | GI50 [21]: 9.82 µM | TGI [21]: 22.2 µM | GI50 [22]: 0.519 µM | TGI [22]: 1.66 µM | GI50 [23]: 3.64 µM | TGI [23]: > 100 µM | GI50 [24]: 2.03 µM | TGI [24]: 10.7 µM | GI50 [25]: 2.3 µM | TGI [25]: 14.1 µM | GI50 [26]: 0.515 µM | TGI [26]: 1.62 µM | GI50 [27]: 1.07 µM | TGI [27]: 4.51 µM | GI50 [28]: 3.25 µM | TGI [28]: 12.9 µM | GI50 [29]: 12.9 µM | TGI [29]: 36.3 µM
